Source: patent US20230322723A1, “COMPOUNDS FOR SUPPRESSING EGFR MUTANT CANCER AND PHARMACEUTICAL USE THEREOF” (J2H BIOTECH INC., priority 2020, published 2023)

Tests used:
EGFR^del19+T790M+C797S = assay: EGFR protein degradation test (Western blot) in Ba/F3 cells expressing mutant EGFR del19+T790M+C797S (DTC); type: cell-based; conditions: compounds at 0.1 μM and 1 μM, 24 hours, Western blot with EGFR antibody
How it was run: (§1)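 Ba/F3 cells expressing wild-type EGFR, del19+T790M+C797S or L858R+T790M+C797S EGFR were treated with compound at 0.1 μM and 1 μM for 24 h. Lysates (30 μg) were analysed by SDS-PAGE and EGFR Western blot, with bands quantified densitometrically.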

EGFR^L858R+T790M+C797S = target: T1, EGFR^L858R+T790M+C797S (Homo sapiens, UniProt P00533, C797S/L858R/T790M); assay: EGFR protein degradation test (Western blot) in Ba/F3 cells expressing mutant EGFR L858R+T790M+C797S (LTC); type: cell-based; conditions: compounds at 0.1 μM and 1 μM, 24 hours, Western blot with EGFR antibody
T1 construct: expressed in transfected cells; host or cells: Ba/F3
How it was run: as §1

[1] = Pharmacokinetic evaluation after single oral administration to ICR mice; type: in vivo; conditions: mouse, ICR mice, single oral dose 5 mg/kg, plasma; for AUC(0-t): read-out: AUC0-24
Protocol: Pharmacokinetic tests for the compounds of the present invention were conducted as below. After a single oral administration of the compound of the present invention to ICR mice, the concentration of the compound over time was followed up and analyzed.
The compound of the present invention was suspended in 10% DMSO/90% (30% HPbCD aqueous solution) and orally administered to mice at a dose of 5 mg/kg. Blood was collected at a fixed time and plasma was separated. Drug analysis was performed using HPLC (XBridge column C18, Waters, mobile phase 0.1% formic acid:acetonitrile (30:70, %/%)) and MS/MS (ESI positive, MRM). Mouse blood plasma and each commercially available standard solution were mixed at a ratio of 9:1 to prepare and calibrate at concentrations of […] 5,000 ng/mL. In addition, the preparation of QC samples was prepared by mixing the mouse blood plasma and the standard solution for QC at a ratio of 9:1, and prepared to be concentrations of 100, 750 and 2,500 ng/mL. 100 μL of the plasma sample was transferred to a centrifugation tube, and 10 μL of the internal standard solution and 300 μL of methanol were added, followed by mixing for about 30 seconds for pretreatment. The tube was centrifuged at 3,000×g (4° C.) for about 5 minutes, and the supernatant was taken and transferred to an LC vial and injected into the instrument. Then, the concentration of the compound in mouse plasma was quantified by applying a previously validated assay. For pharmacokinetic parameters, the program WinNonlin 5.2 (Pharsight, USA) was used. AUC0-t, AUC0-∞, Cmax, Tmax, and t1/2 were calculated by Noncompartment modeling (best fit). The pharmacokinetic parameter results were expressed as the mean (Mean) and standard deviation (SD), and were statistically processed using the SPSS program (Statistical Package for the Social Sciences, 10.0K, USA).

T1 sequence (P00533 25-1210 T790M/C797S/L858R): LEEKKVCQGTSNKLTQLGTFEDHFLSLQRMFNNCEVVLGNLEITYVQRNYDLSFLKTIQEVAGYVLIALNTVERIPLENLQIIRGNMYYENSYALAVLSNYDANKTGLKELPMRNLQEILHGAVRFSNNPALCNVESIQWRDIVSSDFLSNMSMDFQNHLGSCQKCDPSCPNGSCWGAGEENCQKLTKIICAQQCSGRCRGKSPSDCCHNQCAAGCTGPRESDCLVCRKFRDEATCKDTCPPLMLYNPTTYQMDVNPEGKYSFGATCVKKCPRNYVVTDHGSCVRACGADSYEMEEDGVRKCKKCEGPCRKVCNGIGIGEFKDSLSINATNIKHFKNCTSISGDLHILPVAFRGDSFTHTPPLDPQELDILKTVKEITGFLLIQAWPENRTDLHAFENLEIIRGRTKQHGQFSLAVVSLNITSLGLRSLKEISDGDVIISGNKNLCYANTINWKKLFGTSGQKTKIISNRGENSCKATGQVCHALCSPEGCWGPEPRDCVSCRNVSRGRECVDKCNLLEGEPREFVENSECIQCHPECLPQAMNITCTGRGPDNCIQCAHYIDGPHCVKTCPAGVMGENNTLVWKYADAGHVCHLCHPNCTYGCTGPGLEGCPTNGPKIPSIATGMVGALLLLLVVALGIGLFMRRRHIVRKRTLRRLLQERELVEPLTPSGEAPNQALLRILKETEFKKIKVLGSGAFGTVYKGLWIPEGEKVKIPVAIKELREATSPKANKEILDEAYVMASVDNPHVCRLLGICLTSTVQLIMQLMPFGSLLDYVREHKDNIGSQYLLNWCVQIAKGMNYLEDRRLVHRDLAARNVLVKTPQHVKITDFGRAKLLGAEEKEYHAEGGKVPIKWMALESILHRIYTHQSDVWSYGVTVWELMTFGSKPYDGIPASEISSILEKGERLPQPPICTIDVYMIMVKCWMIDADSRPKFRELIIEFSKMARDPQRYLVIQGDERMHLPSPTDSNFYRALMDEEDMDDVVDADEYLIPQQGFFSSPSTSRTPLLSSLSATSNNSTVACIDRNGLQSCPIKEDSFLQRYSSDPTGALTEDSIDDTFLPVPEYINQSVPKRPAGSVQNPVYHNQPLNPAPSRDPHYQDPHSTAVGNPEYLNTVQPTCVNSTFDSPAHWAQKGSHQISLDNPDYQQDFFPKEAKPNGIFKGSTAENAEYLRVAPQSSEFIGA

half-life [1] [h] | AUC(0-t) [1] [ng·h/mL] | SMILES | DTC (EGFR^del19+T790M+C797S) protein degradation (EGFR^del19+T790M+C797S) | LTC (EGFR^L858R+T790M+C797S) protein degradation (EGFR^L858R+T790M+C797S)
8.89 | 68 | COc1cc(N2CCC(CN3CCN(CC(=O)N[C@H](C(=O)N4C[C@H](O)CC4C(=O)NCc4ccc(-c5scnc5C)cc4)C(C)(C)C)CC3)CC2)ccc1Nc1ncc(Cl)c(Nc2ccccc2N(C)S(C)(=O)=O)n1 (stereo in doubt) [Compound 27, (2R,4R)-1-((S)-2-(2-(4-((1-(4-((5-chloro-4-((2-(N-methylmethylsulfonamido)phenyl)amino)pyrimidin-2-yl)amino)-3-methoxyphenyl)piperidin-4-yl)methyl)piperazin-1-yl)acetamido)-3,3-dimethylbutanoyl)-4-hydroxy-N-(4-(4-methylthiazol-5-yl)benzyl)pyrrolidin-2-carboxamide] | ++ (Protein degradation > 80%) | ++ (Protein degradation > 80%)
6.23 | 1170 | COc1cc(N2CCN(CC3CCN(CC(=O)N[C@H](C(=O)N4C[C@H](O)CC4C(=O)NCc4ccc(-c5scnc5C)cc4)C(C)(C)C)CC3)CC2)ccc1Nc1ncc(Cl)c(Nc2ccccc2N(C)S(C)(=O)=O)n1 (stereo in doubt) [Compound 28, (2R,4R)-1-((S)-2-(2-(4-((4-(4-((5-chloro-4-((2-(N-methylmethylsulfonamido)phenyl)amino)pyrimidin-2-yl)amino)-3-methoxyphenyl)piperazin-1-yl)methyl)piperidin-1-yl)acetamido)-3,3-dimethylbutanoyl)-4-hydroxy-N-(4-(4-methylthiazol-5-yl)benzyl)pyrrolidin-2-carboxamide] | ++ (Protein degradation > 80%) | ++ (Protein degradation > 80%)
 |  | COc1cc(N2CCN(CC3CCN(CC4CCN(c5ccc6c(c5)C(=O)N(C5CCC(=O)NC5=O)C6=O)CC4)CC3)CC2)ccc1Nc1ncc(Cl)c(Nc2ccccc2N(C)S(C)(=O)=O)n1 (stereo not drawn) [Compound 59, N-(2-((5-chloro-2-((4-(4-((1-((1-(2-(2,6-dioxopiperidin-3-yl)-1,3-dioxoisoindolin-5-yl)piperidin-4-yl)methyl)piperidin-4-yl)methyl)piperazin-1-yl)-2-methoxyphenyl)amino)pyrimidin-4-yl)amino)phenyl)-N-methylmethanesulfonamide] | ++ (Protein degradation > 80%) | + (Protein degradation 20~80%)
 |  | COc1cc(N2CCC(N3CCN(CC4CN(c5ccc6c(c5)C(=O)N(C5CCC(=O)NC5=O)C6=O)C4)CC3)CC2)ccc1Nc1ncc(Cl)c(Nc2ccccc2N(C)S(C)(=O)=O)n1 (stereo not drawn) [Compound 60, N-(2-((5-chloro-2-((4-(4-(4-((1-(2-(2,6-dioxopiperidin-3-yl)-1,3-dioxoisoindolin-5-yl)azetidin-3-yl)methyl)piperazin-1-yl)piperidin-1-yl)-2-methoxyphenyl)amino)pyrimidin-4-yl)amino)phenyl)-N-methylmethanesulfonamide] | − (Protein degradation < 20%) | ++ (Protein degradation > 80%)
 |  | COc1cc(N2CCN(CC3CCN(CC4CN(c5ccc6c(c5)C(=O)N(C5CCC(=O)NC5=O)C6=O)C4)CC3)CC2)ccc1Nc1ncc(Cl)c(Nc2ccccc2N(C)S(C)(=O)=O)n1 (stereo not drawn) [Compound 61, N-(2-((5-chloro-2-((4-(4-((1-((1-(2-(2,6-dioxopiperidin-3-yl)-1,3-dioxoisoindolin-5-yl)azetidin-3-yl)methyl)piperidin-4-yl)methyl)piperazin-1-yl)-2-methoxyphenyl)amino)pyrimidin-4-yl)amino)phenyl)-N-methylmethanesulfonamide] | − (Protein degradation < 20%) | + (Protein degradation 20~80%)
 |  | COc1cc(N2CCC(CN3CCC(CNc4cccc5c4C(=O)N(C4CCC(=O)NC4=O)C5=O)CC3)CC2)ccc1Nc1ncc(Cl)c(Nc2ccccc2N(C)S(C)(=O)=O)n1 (stereo not drawn) [Compound 62, N-(2-((5-chloro-2-((4-(4-((4-(((2-(2,6-dioxopiperidin-3-yl)-1,3-dioxoisoindolin-4-yl)amino)methyl)piperidin-1-yl)methyl)piperidin-1-yl)-2-methoxyphenyl)amino)pyrimidin-4-yl)amino)phenyl)-N-methylmethanesulfonamide] | + (Protein degradation 20~80%) | ++ (Protein degradation > 80%)
 |  | COc1cc(N2CCC(CN3CCC(CNc4ccc5c(c4)C(=O)N(C4CCC(=O)NC4=O)C5=O)CC3)CC2)ccc1Nc1ncc(Cl)c(Nc2ccccc2N(C)S(C)(=O)=O)n1 (stereo not drawn) [Compound 63, N-(2-((5-chloro-2-((4-(4-((4-(((2-(2,6-dioxopiperidin-3-yl)-1,3-dioxoisoindolin-5-yl)amino)methyl)piperidin-1-yl)methyl)piperidin-1-yl)-2-methoxyphenyl)amino)pyrimidin-4-yl)amino)phenyl)-N-methylmethanesulfonamide] | + (Protein degradation 20~80%) | ++ (Protein degradation > 80%)
 |  | COc1cc(N2CCN(CC3CCN(C(=O)CCc4ccc5c(c4)C(=O)N(C4CCC(=O)NC4=O)C5=O)CC3)CC2)ccc1Nc1ncc(Cl)c(Nc2ccccc2N(C)S(C)(=O)=O)n1 (stereo not drawn) [Compound 64, N-(2-((5-chloro-2-((4-(4-((1-(3-(2-(2,6-dioxopiperidin-3-yl)-1,3-dioxoisoindolin-5-yl)propanoyl)piperidin-4-yl)methyl)piperazin-1-yl)-2-methoxyphenyl)amino)pyrimidin-4-yl)amino)phenyl)-N-methylmethanesulfonamide] | − (Protein degradation < 20%) | + (Protein degradation 20~80%)
 |  | COc1cc(N2CCN(CC3CCN(C(=O)CNc4ccc5c(c4)C(=O)N(C4CCC(=O)NC4=O)C5=O)CC3)CC2)ccc1Nc1ncc(Cl)c(Nc2ccccc2N(C)S(C)(=O)=O)n1 (stereo not drawn) [Compound 66, N-(2-((5-chloro-2-((4-(4-((1-((2-(2,6-dioxopiperidin-3-yl)-1,3-dioxoisoindolin-5-yl)glycyl)piperidin-4-yl)methyl)piperazin-1-yl)-2-methoxyphenyl)amino)pyrimidin-4-yl)amino)phenyl)-N-methylmethanesulfonamide] | ++ (Protein degradation > 80%) | ++ (Protein degradation > 80%)
 |  | COc1cc(N2CCC(CN3CCN(c4ccc5c(c4)C(=O)N(C4CCC(=O)NC4=O)C5=O)CC3)CC2)ccc1Nc1ncc(Cl)c(Nc2ccccc2N(C)S(C)(=O)=O)n1 (stereo not drawn) [Compound 67, N-(2-((5-chloro-2-((4-(4-((4-(2-(2,6-dioxopiperidin-3-yl)-1,3-dioxoisoindolin-5-yl)piperazin-1-yl)methyl)piperidin-1-yl)-2-methoxyphenyl)amino)pyrimidin-4-yl)amino)phenyl)-N-methylmethanesulfonamide] | − (Protein degradation < 20%) | ++ (Protein degradation > 80%)
 |  | COc1cc(N2CCN(CC3CCN(c4ccc5c(c4)C(=O)N(C4CCC(=O)NC4=O)C5=O)CC3)CC2)ccc1Nc1ncc(Cl)c(Nc2ccccc2N(C)S(C)(=O)=O)n1 (stereo not drawn) [Compound 68] | + (Protein degradation 20~80%) | ++ (Protein degradation > 80%)
 |  | COc1cc(N2CCC(N3CCN(CC#Cc4ccc5c(c4)C(=O)N(C4CCC(=O)NC4=O)C5=O)CC3)CC2)ccc1Nc1ncc(Cl)c(Nc2ccccc2N(C)S(C)(=O)=O)n1 (stereo not drawn) [Compound 72, N-(2-((5-chloro-2-((4-(4-(4-(3-(2-(2,6-dioxopiperidin-3-yl)-1,3-dioxoisoindolin-5-yl)prop-2-yn-1-yl)piperazin-1-yl)piperidin-1-yl)-2-methoxyphenyl)amino)pyrimidin-4-yl)amino)phenyl)-N-methylmethanesulfonamide] | − (Protein degradation < 20%) | − (Protein degradation < 20%)
 |  | COc1cc(N2CCN(CC#Cc3ccc4c(c3)C(=O)N(C3CCC(=O)NC3=O)C4=O)CC2)ccc1Nc1ncc(Cl)c(Nc2ccccc2N(C)S(C)(=O)=O)n1 (stereo not drawn) [Compound 73, N-(2-((5-chloro-2-((4-(4-(3-(2-(2,6-dioxopiperidin-3-yl)-1,3-dioxoisoindolin-5-yl)prop-2-yn-1-yl)piperazin-1-yl)-2-methoxyphenyl)amino)pyrimidin-4-yl)amino)phenyl)-N-methylmethanesulfonamide] | − (Protein degradation < 20%) | − (Protein degradation < 20%)
